Assay results reported in patent publication US4111945A, “Process for the preparation of 3,4,5-trimethoxy-phenyl-(1,4-dimethyl-1,2,3,6-tetrahydro-2-pyridyl)-carb inol” (Laboratories Made, S.A., priority 1976, dated 1978).

Experiments:
Type in all cases: in vivo
[1] = Acute toxicity, intraperitoneal (Litchfield-Wilcoxon); details: mouse, in vivo, ip, Swiss ICR mice of both sexes, 25 ± 2 g, read-out: Lethal Dose 50 (LD50)
Procedure: (§1) Acute toxicity studies were made in Swiss ICR mice of both sexes weighing 25 ± 2 g. The products were administered intraperitoneally. Acute toxicity calculations were made by the Litchfield-Wilcoxon method.

Swiss ICR albino mice [2] = test: Thermal analgesia, hot-plate technique at 55° C.; details: for Jumping time (mean ± S.E.M.): 30 mg/kg, intraperitoneal, 30 minutes, hot-plate 55° C., control 50.1 ± 3.16
Procedure: The thermal analgesia effect was studied in Swiss ICR albino mice. The hot-plate technique at 55° C. was used. The […] were divided into batches of 10.
The products being studied were administered intraperitoneally and after 30 minutes the animals were placed on the hot-plate, the time in seconds being counted until the animals started to jump. Batches of control animals which had received injections of distilled water only were used.

Swiss ICR albino mice [3] = test: Chemical analgesia, acetic acid writhing technique
Procedure: The analgesic effect was studied in Swiss ICR albino mice using the acetic acid writhing technique. The animals were divided into batches of 10.
The products studied were administered intraperitoneally and after 30 minutes 0.25 ml of 1% acetic acid was injected intraperitoneally. A batch of control animals was given only the acetic acid. The number of writhings made by each mouse in the 20 minutes after the administration of the acetic acid was counted.

Swiss ICR mice = test: Acute toxicity, intraperitoneal (Litchfield-Wilcoxon); details: Swiss ICR mice of both sexes, 25 ± 2 g
Procedure: as §1

COc1cc(C(O)C2CC(C)=CCN2C)cc(OC)c1OC (stereo not shown) [Product VIII, 3,4,5-trimethoxyphenyl-(1,4-dimethyl-1,2,3,6-tetrahydro-2-pyridyl)-carbinol]
LD50 [1]: 201 mg/kg | Jumping time (mean ± S.E.M.) (Swiss ICR albino mice [2]): 51.8 ± 5.46 s | thermal analgesic activity (Swiss ICR albino mice [2]; conclusion in words): lacks thermal analgesic activity | No. of writhings (mean ± S.E.M.) (Swiss ICR albino mice [3]; 30 mg./kg., intraperitoneal, 30 minutes before acetic acid, counted over 20 minutes, control 93): 58.8 ± 10.2 | chemical analgesic activity (Swiss ICR albino mice [3]; conclusion in words, compared with dextropropoxyphene): same intensity as dextropropoxyphene

CCC(=O)O[C@](Cc1ccccc1)(c1ccccc1)[C@H](C)CN(C)C [Dextropropoxyphene, dextropropoxyphene, reference compound]
Lethal Dose 50 (LD50) (Swiss ICR mice): 140 mg/kg | Jumping time (mean ± S.E.M.) (Swiss ICR albino mice [2]): 91 ± 17.17 s
